From patent US10617675B2, “Hepatitis C virus inhibitors” (BRISTOL-MYERS SQUIBB COMPANY, priority 2015, dated 2020)
Like-named read-outs stand apart in the source and are kept apart here.

Columns and labels:
HCV = assay: Relative (synergistic) activity of separated diastereomers; assay type: cell-based, Hepatitis C virus; conditions: comparison within the set of three diastereomers; first eluting isomer
[1] = system: HCV genotype-1a variant with glutamine 30 changed to glutamate in the NS5A protein; assay type: cell-based, Hepatitis C virus; conditions: genotype-1a Q30E; BMS-790052 titrated with 200 nM P-55 versus singly
Excerpt: The NS5A synergistic inhibitory effect of test compounds can be determined using various amounts of an NS5A-targeting compound with titration of a second compound of interest. […] The test compound can be chosen from compounds listed above or from others present in the literature.

[2] = system: HCV genotype-1a variant with glutamine 30 changed to glutamate in the NS5A protein; conditions: genotype-1a Q30E NS5A variant, cited from earlier work

Row | SMILES | activity relative to the other separated diastereomers (HCV) | reciprocal synergistic inhibitory effect for the combination [1] | EC50 ([2]; P-55 fixed at 200 nM, read-out: EC50 of BMS-790052 in the presence of a fixed amount of P-55) | EC50 ([2]; single agent, read-out: EC50, compound titrated singly)
1 | CN(C)C(=O)OC(C)(C(=O)N[C@H](c1ncc(-c2ccc(-c3ccc(-c4cnc([C@@H](NC(=O)C(C)(OC(=O)N(C)C)C(C)(C)CF)C(C)(C)C)[nH]4)cc3)cc2)[nH]1)C(C)(C)C)C(C)(C)CF (single isomer, unassigned) [Example Y1] | most active of the set |  |  | 
2 | CC(C)(C)[C@H](NC(=O)C1(CO)OC2CCC1CC2)c1nc(-c2ccc(-c3ccc(-c4c[nH]c([C@@H](NC(=O)C5(CO)OC6CCC5CC6)C(C)(C)C)n4)cc3)cc2)c[nH]1 (single isomer, unassigned) [Example Y14] | most active isomer |  |  | 
3 | COC(=O)N[C@H](C(=O)N1CCC[C@H]1c1nc(-c2ccc(-c3ccc(-c4c[nH]c([C@@H]5CCCN5C(=O)[C@@H](NC(=O)OC)C(C)C)n4)cc3)cc2)c[nH]1)C(C)C [BMS-790052] |  | ~100 fold | ~2 nM | ~200 nM
4 | CC(C)(C)[C@H](NC(=O)C(C)(OC(=O)N1CCC1)C1(C)CC1)c1nc(-c2ccc(-c3ccc(-c4c[nH]c([C@@H](NC(=O)C(C)(OC(=O)N5CCC5)C5(C)CC5)C(C)(C)C)n4)cc3)cc2)c[nH]1 (stereo partly shown) [Example Y19a] | most synergistically active of the three |  |  | 
5 | COC(=O)N1CC(F)(F)CC1(C)C(=O)N[C@H](c1nc2ccc(-c3cnc(-c4ccc5nc([C@@H](NC(=O)C6(C)CC(F)(F)CN6C(=O)OC)C(C)(C)C)[nH]c5c4)cn3)cc2[nH]1)C(C)(C)C (stereo partly shown) [Example Y20] | most synergistically active of the three |  |  | 
